Among the data in ChEMBL document CHEMBL3714732, “Small molecule modulators of g protein-coupled receptor six” (2001) are IC50 and Activity values, retold here.

What all share (format): functional
In assay [1] the target is T1, G-protein coupled receptor 6 (Homo sapiens, UniProt P46095). In words: Inverse agonist activity at rat G-protein GSalpha fused GPR6 (unknown origin) expressed in HEK293 cell membranes assessed as effect on [35S]GTPgammaS binding pre-incubated for 5 to 10 mins followed by 60 mins incubation in presence of [35S]GTPgammaS by scintillation proximity assay.
In assay [2] the target is T1, G-protein coupled receptor 6. In words: Inverse agonist activity at rat G-protein GSalpha fused GPR6 (unknown origin) expressed in HEK293 cell membranes assessed as cAMP accumulation pre-incubated for 30 mins by microbeta plate reader based assay.
In assay [3] the test system is Rattus norvegicus. In words: Reduction in food intake in 24 hrs food-deprived Sprague-Dawley rat assessed as food intake level at 100 umol/kg, po followed by standard chow pellets feeding and measured 8 hrs post dose (reference value: 14 to 14.5g).
Assay [4] deals with Rattus norvegicus. In words: Reduction in water intake in 24 hrs food-deprived Sprague-Dawley rat assessed as water intake level at 100 umol/kg, po followed by standard chow pellets feeding and measured 6 hrs post dose (reference value: 19.25 to 22.9g).
The test system of assay [5] is Rattus norvegicus. Briefly: Reduction in body weight gain in 24 hrs food-deprived Sprague-Dawley rat assessed as body weight gain level at 100 umol/kg, po followed by standard chow pellets feeding and measured 6 hrs post dose (reference value: 19.25 to 20.3g).

T1 sequence (P46095 whole entry, the tested form may be a part): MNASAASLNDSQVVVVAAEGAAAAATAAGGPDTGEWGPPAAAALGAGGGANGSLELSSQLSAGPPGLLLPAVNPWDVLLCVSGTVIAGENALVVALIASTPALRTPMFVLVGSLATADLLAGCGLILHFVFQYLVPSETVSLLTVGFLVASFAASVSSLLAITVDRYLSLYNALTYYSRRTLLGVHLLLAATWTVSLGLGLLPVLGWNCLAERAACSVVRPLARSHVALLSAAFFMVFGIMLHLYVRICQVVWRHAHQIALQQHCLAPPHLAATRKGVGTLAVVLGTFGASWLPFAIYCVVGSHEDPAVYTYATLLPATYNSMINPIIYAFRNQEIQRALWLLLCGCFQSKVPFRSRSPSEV

For `O=C(/N=C1\SSC2=NCCN21)c1cccnc1`, the results for the IC50 in assay [1] and in assay [2] were 0.67 µM and 0.133 µM, respectively.

As for `COc1cccc(C(=O)/N=C2\SSC3=NCCN32)c1`, the IC50 was 0.31 µM in assay [1] and 0.4 µM in assay [2].

Take `O=C(NC(=S)N1CCNC1=S)c1ccno1`: the IC50 came to 2.43 µM in assay [1] and 5.83 µM in assay [2].

Turning to `Cc1onc(-c2ccccc2)c1C(=O)/N=C1\SSC2=NCCN21`, the IC50 in assay [1] stood at 2.46 µM.

Regarding `CC(C)(C)c1ccc(C(=O)NC(=S)N2CCNC2=S)cc1`, the IC50 in assay [1] amounted to 200 µM.

For `O=C(NC(=S)N1CCNC1=S)c1cccc2ccccc12`, the IC50 in assay [1] came to 200 µM.

Regarding `O=C(/N=C1\SSC2=NCCN21)c1ccccc1F`, the concentration for half-maximal inhibition (IC50) in assay [1] was 0.35 µM; in assay [2], 0.1 µM.

Consider `CSc1ncccc1C(=O)NC(=S)N1CCNC1=S`, for which the 50% inhibitory concentration (IC50) in assay [1] was 200 µM.

Regarding `O=C(/N=C1\SSC2=NCCN21)c1ccco1`, the IC50 stood at 0.25 µM in assay [1] and 0.11 µM in assay [2].

`O=C(/N=C1\SSC2=NCCN21)c1cnn(-c2ccc(Cl)cc2)c1C(F)(F)F`: in assay [1], the IC50 was 0.19 µM.

In the case of `O=C(NC(=S)N1CCNC1=S)c1cnn(-c2ccc(Cl)cc2)c1C(F)(F)F`, the IC50 in assay [1] and in assay [2] was 200 µM each time.

As for `O=C(NC(=S)N1CCNC1=S)c1ccccc1F`, the IC50 in assay [2] was 200 µM.

For the compound `O=C(/N=C1\SSC2=NCCN21)c1ccc(F)cc1`, the concentration for half-maximal inhibition (IC50) in assay [1] turned out to be 0.37 µM; in assay [2] it was 0.2 µM. Besides, the results for the Activity in the assay on Rattus norvegicus [3], in the assay on Rattus norvegicus [4] and with Rattus norvegicus [5] were 7.93 g, 8.5 g and 4.03 g, respectively.
